Assay results: patent publication US20200368280A1, “EPIGENETIC MODIFIERS FOR USE IN CELLULAR IMMUNOTHERAPY” (Viracta Therapeutics, Inc., priority 2018, published 2020)
Read-outs that look alike come from different tables or passages of the source.

Assays:
[1] = test system: BALB/c splenocytes (FoxP3+, CD25+ T regulatory cells); test: FACS analysis of splenocytes treated 24 hours with HDAC inhibitor; type: cell-based, BALB/c mice
Protocol: Test agents were added to each plate at the concentrations indicated in the table below and were incubated for 24 hours prior to FACS analysis. FACS analysis consisted of the following markers: live/dead, CD45, CD3, CD4, CD25 and FoxP3.

[2] = test system: exhausted T cell population (CD8+ T cells) from PBMC; test: T cell exhaustion assay, CEFT-exhausted PBMC restimulated with DC and CEFT; type: cell-based, human; settings: for IFN-γ release by restimulated CD8+ T cells (percent IFNγ secreting CD8+ cells, FIG. 11) / CD8+ T cell proliferation (FIG. 9B, 9C): restimulated with CEFT; for CD8+ T cell proliferation (FIG. 9B, 9C): compared to CEFT alone
Protocol: FIGS. 12A, 12B and 12C show the effects of anti-PD-1 and nanatinostat treatment on IFN-γ, TNFα, and TGFβ. Isolated PBMC were exhausted with CEFT-stimulation for 10 days prior to being restimulated with moDC and CEFT peptide with compound treatment for an additional 4 days. Luminex analysis was performed and levels of IFN-γ (FIG. 12A), TNFα (FIG. 12B), and TGFβ (FIG. 12C). Dotted lines denote anti-PD-1 control treatment and vehicle control treatment as indicated.
To test whether nanatinostat can be used to reverse T cell exhaustion, whether by itself or in combination with PD-1, a standard T cell exhaustion assay was used. Peripheral Blood Mononuclear Cells (PBMC) were separated over a density gradient from 3 single human donor buffy coats. PBMC were stimulated with pooled pathogen-specific class I peptides (CEFT) to generate an exhausted T cell population. Cells were then re-stimulated with CEFT and autologous monocyte-derived dendritic cells for a further time before testing in a final re-stimulation assay using replenished DC and CEFT to monitor reversal of exhaustion. […] One dose of HDAC inhibitor was tested and a single dose of anti-PD-1 was used. An unstimulated control and a reference HDAC inhibitor were also plated. Cultures were pulsed with 3H-thymidine and proliferation assessed. Supernatants were also harvested for cytokine analysis by multiplex. Samples of cells were stained with an antibody panel directed against CD4, CD8, PD-1, IL-15R, TIGIT, CD45RO, CCR7, IFNγ and CD25 and characterized using flow cytometry in order to confirm their exhausted phenotype, and whether expression levels were altered following exposure to the combination therapies. PBMC were also phenotyped using the above panel at day 0 to determine the initial frequency of cell populations.

CT26 subcutaneous tumor = type: in vivo; settings: nanatinostat 25 mg/kg orally daily, anti-mPD-1 10 mg/kg intraperitoneally
Protocol: (§1) Nanatinostat alone and in combination with anti-mPD-1 was evaluated in the CT26 subcutaneous tumor model in Balb/c mice. Animals were dosed orally with nanatinostat at 25 mg/kg daily, and intraperitoneally with anti-mPD-1 at 10 mg/kg on a bi-weekly schedule. 8 animals per group were selected and tumors were collected for FACS and qPCR analysis on Day 9, 12-13 hours post dose. The remaining animals continued to receive their respective treatments until Day 21.
144 female Balb/c mice (date of birth: Aug. 1, 2017) purchased from Jackson Laboratories were inoculated for the study. Animals were housed for a stabilization period of 5 days prior to inoculation. Animals were housed in individual HEPA ventilated cages (Innocage® IVC, Innovive USA). Fluorescent lighting was provided on a 12-hour cycle. Temperature and humidity was monitored and recorded daily and maintained to the maximum extent possible between 68-74° F. (20-23° C.) and 30-70% humidity, respectively. 2920X.10 18% soy irradiated rodent feed (Envigo) and autoclaved acidified water (pH2.5-3) was provided ad libitum.
CT26 cells were cultured as per ATCC's recommended culture protocol. For inoculation, cells were washed in PBS, counted, and resuspended in cold PBS at a concentration of 250,000 viable cells/100 μl. Cell suspension was kept on ice during transport to the vivarium. Cells were prepared for injections by withdrawing cells into a chilled 1 ml syringe fitted with a 26G 7/8 (0.5 mm×22 mm) needle.
Animals were prepared as needed for injection using standard approved anesthesia, and the mice were shaved prior to injection. One mouse at a time was immobilized and the site of injection was disinfected with an alcohol swab. 100 μl of the cell suspension was subcutaneously injected into the rear flank of the mouse. Mice were marked by ear tagging.
Animals were monitored daily for palpable tumors, or any changes in appearance or behavior. Once tumors were palpable, they were measured using calipers. Tumor volume was calculated using the following equation (longest diameter×shortest diameter^2)/2.

T cells in CT26 tumors = test: FACS analysis of CT26 tumors on Day 9; type: in vivo, Balb/c mice
Protocol: as §1
On Day 9, N=8/arm were harvested tumors for PD assessment 12-13 hours post last dose. Half of each tumor was placed in transfer buffer for FACS analysis.

[3] = test system: gene expression in CT26 tumors; test: qPCR gene expression analysis of CT26 tumors on Day 9; type: in vivo, Balb/c mice; settings: Day 9, tumors
Protocol: as §1
On Day 9, N=8/arm was harvested tumors for PD assessment. Half of each tumor was flash frozen for subsequent qPCR analysis. Fragments of flash frozen tumors were transferred in RLT PLUS buffer (Qiagen) and loaded into labelled and prefilled tubes with beads and homogenized for 60 seconds at maximum speed. RNA was extracted with AllPrep DNA/RNA Mini kit, purchased from Qiagen, according to the manufacturer's protocol. RNA quantity and purity was evaluated by Synergy 2 Multi-Mode Reader according to the Biotec Protocol. 750 ng total RNA from each sample was used to generate cDNA in a 20 μl reaction. The reaction was performed to the standard of Superscript III First-Strand Synthesis protocol by ThermoFisher by using Eppendorf Mastercycler Pro. […] Gene expression data was analyzed on the ViiA7 system using ABI 2.1 software to generate the raw data. […]

[4] = 1 uM, 24 hours, percentage ± SD
[5] = 100 nM, 24 hours, percentage ± SD
[6] = listed as head prints 'nM' (1 nM), 24 hours, percentage ± SD
[7] = combination vs anti PD-1 only, nanatinostat only vs vehicle

Molecule	CD45+ [1, 4] [%]	IFN-γ release by restimulated CD8+ T cells (percent IFNγ secreting CD8+ cells, FIG. 11) [2]	CD45+ [1, 5] [%]	CD45+ CD3+ [1, 5] [%]	CD45+ ([1]; 500 nM, 24 hours, percentage ± SD) [%]	concentration at which the suppressive effect on FoxP3, CD25+ T cells was still seen ([1]; at least as low as) [nM]	CD45+ [1, 6] [%]	CD45+ CD3+ CD4+ FoxP3+ [1, 6] [%]	inhibition of tumor growth (CT26 subcutaneous tumor; Day 3) [%]	inhibition of tumor growth (CT26 subcutaneous tumor; Day 4) [%]	inhibition of tumor growth (CT26 subcutaneous tumor; Day 7) [%]	inhibition of tumor growth (CT26 subcutaneous tumor; Day 9) [%]	inhibition of tumor growth (CT26 subcutaneous tumor; Day 9, listed as nanatinostat) [%]	CXCR3 expressing cell population in CD4+ T cells in tumors (FIG. 5A) (T cells in CT26 tumors; [7])	CXCR3 expressing cell population in CD8+ T cells in tumors (FIG. 5B) (T cells in CT26 tumors; [7])	CD8+ T-cell population in tumors (T cells in CT26 tumors; compared to the vehicle group)	T cell infiltration in tumors (FIG. 4) (T cells in CT26 tumors; compared to vehicle or anti-PD-1 group, p-value 0.007 for both)	KLRC2 expression on NK cells (FIG. 8) [3]	cell viability (FIG. 10A, 10B) ([2]; compared to Entinostat)	CD8+ T cell proliferation (FIG. 9B, 9C) [2]
Nc1ccccc1NC(=O)c1ccc(CNC(=O)OCc2cccnc2)cc1 [Entinostat, reference compound]	99.1 ± 0.27	reduced																		
O=C(NO)c1cnc(N2CC3C(C2)C3NCc2ccc3cc(F)ccc3n2)nc1 (centres unmarked) [Nanatinostat, 2-(6-{[(6-Fluoroquinolin-2-yl)methyl]amino}-3-azabicyclo[3.1.0]hex-3-yl)-N-hydroxypyrimidine-5-carboxamide]	99.6 ± 0.17	little effect	99.6 ± 0.12	94 ± 0.83	99.5 ± 0.29	≤ 100	98.6 ± 0.36	12 ± 1.51	16.20	23.31	38.94	33.81	33	no significant difference	no significant difference	higher	significantly increased	increased	well tolerated	negative effect
anti-PD-1 (Pembrolizumab): anti-PD-1 antibody used in the human T cell exhaustion assay [reference compound]																				restored proliferation
